Legend:
[1] = test system: choroidal neovascularization in C57BL/6J mice; type: in vivo; conditions: 10 μg intravitreal after laser and day 7; assessed day 14; vs vehicle (PBS or DMSO)
Procedure: Parstatin (1-41), hydrophobic parstatin (1-26) fragment and hydrophilic parstatin (24-41) fragment were used in an in vivo mouse model of choroidal neovascularization. In particular, laser photocoagulation-induced rupture of Bruch's membrane was used to generate choroidal neovascularization as a preclinical disease model for age-related macular degeneration. Pathogen-free C57BL/6J (4-5 week-old) mice were treated in accordance with the Association for Research in Vision and Ophthalmology Statement for the Use of Animals in Ophthalmic and Vision Research and the guidelines of the Animal Care and Use Committee at local University Medical School.
C57BL/6J (4-5 week-old) mice were anesthetized with ketamine hydrochloride (100 mg/kg body weight) and xylazine-(4 mg/Kg body weight) and the pupils were dilated with 1% tropicamide. Laser photocoagulation (75 μm spot size, 0.1 sec duration, 120 mW) was performed in the 9, 12, and 3 o'clock positions of the posterior pole of the retina with the slit lamp delivery system of an Oculight GL diode laser (Index, Mountain View, Calif.) and a handheld cover slip as a contact lens to view the retina. Production of a bubble at the time of laser, which indicates rupture of Bruch's membrane, is an important factor in obtaining CNV. Therefore, only burns in which a bubble was produced were included in the study. Two weeks after rupture of Bruch's membrane, anesthetized mice were perfused with 50 mg/ml fluorescein-labelled-dextran (2×10^6 average molecular weight, Sigma-Aldrich, St. Louis, Mo.). The eyes were then dissected and fixed in 10% Formalin for 3 hours and choroidal flat mounts were examined by fluorescence microscopy. Image-Pro Plus software (Media Cybernetics, Silver Spring, Md.) was used to measure the total area of CNV at each rupture site by personnel blinded as to study treatments and groups.
Intraocular injections of parstatin peptides were performed with a Harvard pump microinjection apparatus and pulled glass micropipets. […] Choroidal neovascularization was assessed 14 days after laser treatment.

[2] = test system: VEGF-induced retinal leukostasis in C57BL/6J mice; test: VEGF-induced retinal leukostasis model; type: in vivo, mouse; conditions: for reduction of firmly adhering leukocytes vs VEGF-treated controls: 5 μg co-injected with VEGF; for firmly adhering leukocytes: 5 μg co-injected with VEGF (10 μM), 6 h
Procedure: Inflammatory leukocyte accumulation is a common feature of major ocular diseases. […] VEGF, which is a potent chemoattractant for leukocytes, is increased in ischemic retina and is necessary for retinal neovascularization to occur. Parstatin (1-41), hydrophobic parstatin (1-26) fragment and hydrophilic parstatin (24-41) fragment were used in an in vivo mice model of VEGF-induced retinal leukostasis.
C57BL/6J (4-5 week-old) mice were anesthetized with ketamine hydrochloride (100 mg/kg body weight) and xylazine (4 mg/Kg body weight) and the pupils were dilated with 1% tropicamide. Intravitreal injections of 1 μl solutions of 10 μM VEGF, which is the optimal concentration for promoting leukostasis, or parstatin (1-41) or parstatin (24-41) in phosphate buffered saline (PBS) or PBS alone or the combinations were administered. Also, intravitreal injections of 1 μl solutions of parstatin (1-26) in dimethyl sulphoxide (DMSO) or DMSO alone were administered to assess leukostasis. Six hours after intravitreal injections, which was the optimal time determined for VEGF-induced leukostasis, animals were perfused with PBS to remove intravascular content, including nonadherent leukocytes. Perfusion with FITC-conjugated Concanavalin A (40 μg/ml in PBS, Vector Labs, Burlingame, Calif.) was then performed to label adherent leukocytes and vascular endothelial cells, followed by removal of residual unbound lectin with PBS perfusion. Retinal flat mounts were prepared and examined with the Axioskop microscope and images were digitized. The total numbers of leukocytes adhering to the retinal vessels were counted at 200× by the same investigator, with the investigator being masked as to the nature of the specimen.

[3] = test system: cGMP content of myocardium; test: myocardial cGMP ELISA after ischemia-reperfusion; type: in vivo, rat; conditions: 1 μg/kg, 120 min reperfusion
Procedure: To determine whether […] (1-26) protects the heart by a mechanism involving soluble guanylyl cyclase (sGC), rats were treated with ODQ (1 mg/kg, a sGC inhibitor) with or without […] (1-26) (1 μg/kg) prior to ischemia. ODQ abolished the reduction in infarct size caused by […] (1-26), but had no effect alone (FIG. 26A). Tissue accumulation of cGMP was measured after 120 min reperfusion from ischemic and non-ischemic myocardium. In these experiments, the cGMP was measured in the rat hearts by specific ELISA kits according to the manufacturer's instructions (Cayman Chemical, Ann Arbor, Mich.). The hearts (n=6/group) were excised after 120 min reperfusion and immediately frozen in liquid nitrogen, then stored at -80° C. until assayed. Frozen myocardial tissue samples in liquid nitrogen were ground to a fine powder in a stainless-steel mortar. Frozen tissue was dropped into 5-10 volumes (ml of solution/gram of tissue) of 5% trichloroacetic acid (TCA) in water. The samples were homogenized on ice […] using a polytron-type homogenizer. Centrifugation was at 30,000 r.p.m. at room temperature and the supernatant was collected for quantitative immunoassay of cGMP. […] (1-26) treatment group when compared to the control and sham treated groups respectively (FIG. 26B). No difference in cGMP tissue content was observed between the ischemic and non-ischemic zones within the control groups, however, […]

HUVEC cells = test: [3H]-thymidine incorporation (DNA synthesis); type: cell-based, human; conditions: serum, bFGF or VEGF; comparison peptides 10 μM
Procedure: The ability of parstatin (1-41) to inhibit DNA synthesis of endothelial cells was assessed in thymidine incorporation assays. HUVEC cells were grown until 60-80% confluent in 24-well plates. Cells were treated with indicated peptides in serum-free medium containing either 0.5% BSA, or VEGF, or bFGF, or medium containing 5% FBS, or epidermal growth factor (EGF), or heparin-binging EGF (HB-EGF) for 18 hours. All cells were pulsed with 0.5 μCi/ml [3H]-thymidine (ICN Biomedicals Inc., Irvine Calif.) for additional 6 h. Radioactivity incorporated into DNA was determined in liquid scintillation counter.

Sequence	inhibition of choroidal neovascularization [1]	reduction of firmly adhering leukocytes vs VEGF-treated controls [2]	firmly adhering leukocytes [2]	cGMP production in the ischemic zone vs non-ischemic zone [3]	tissue accumulation of cGMP in the ischemic tissue compared to control [3]	tissue accumulation of cGMP in the ischemic tissue compared to sham [3]	DNA synthesis in HUVEC cells (HUVEC cells)
MGPRRLLLVAACFSLCGPLLSARTRA (listed as Homo sapiens) [parstatin (1-26)]	62%	59%	74±32 cells/retina	2.2 fold	4.6 fold	10.9 fold	
TRARRPESKATNATLDPR (listed as Homo sapiens) [parstatin (24-41), 24-41 (18 amino acids) of human parstatin, hydrophilic fragment]	77%	55%	81±21 cells/retina				did not cause any significant effect
